{
  "source": "patent US20250381182A1",
  "about": "“ALDH-2 INHIBITOR COMPOUNDS AND METHODS OF USE” (Amygdala Neurosciences, Inc., priority 2024, published 2025)",
  "origin": "cited, not measured here",
  "conditions": "O'Malley et al. 2021, Phase 2 study of ANS-6637; cited from earlier work",
  "data": [
    {"compound": "O=C(NCc1ccc(-c2cc[nH]c(=O)c2)cc1)c1c(Cl)cccc1Cl", "note": "[2,6-dichloro-N-[4-(2-oxo-1,2-dihydro-pyridin-4-yl)-benzyl]-benzamide]", "values": [
      {"measurement": "hepatotoxicity in humans", "value": "high levels of hepatotoxicity"}
    ]}
  ]
}
